Reference: PubChem BioAssay (NCI)
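GI50 is the concentration that inhibits growth by half. TGI: concentration producing complete growth inhibition.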

What was measured:
Test in all cases: DTP human tumour cell line panel, 384-well format
786-0 renal = test system: 786-0 renal
A498 renal = test system: A498 renal
A549 NSCLC = test system: A549 NSCLC
ACHN renal = test system: ACHN renal
BT-549 breast = test system: BT-549 breast
CAKI-1 renal = test system: CAKI-1 renal
CCRF-CEM leukemia = test system: CCRF-CEM leukemia
COLO 205 colon = test system: COLO 205 colon
DU-145 prostate = test system: DU-145 prostate
HCT-116 colon = test system: HCT-116 colon
HL-60(TB) leukemia = test system: HL-60(TB) leukemia
HOP-62 NSCLC = test system: HOP-62 NSCLC
HOP-92 NSCLC = test system: HOP-92 NSCLC
HS 578T breast = test system: HS 578T breast
HT29 colon = test system: HT29 colon
IGROV1 ovarian = test system: IGROV1 ovarian
K-562 leukemia = test system: K-562 leukemia
KM12 colon = test system: KM12 colon
LOX IMVI melanoma = test system: LOX IMVI melanoma
M14 melanoma = test system: M14 melanoma
MALME-3M melanoma = test system: MALME-3M melanoma
MCF7 breast = test system: MCF7 breast
MDA-MB-231 breast = test system: MDA-MB-231 breast
MDA-MB-435 melanoma = test system: MDA-MB-435 melanoma
MDA-MB-468 breast = test system: MDA-MB-468 breast
MOLT-4 leukemia = test system: MOLT-4 leukemia
NCI-H226 lung = test system: NCI-H226 lung
NCI-H23 lung = test system: NCI-H23 lung
NCI-H322M lung = test system: NCI-H322M lung
NCI-H460 NSCLC = test system: NCI-H460 NSCLC
NCI-H522 lung = test system: NCI-H522 lung
OVCAR-3 ovarian = test system: OVCAR-3 ovarian
OVCAR-4 ovarian = test system: OVCAR-4 ovarian
OVCAR-8 ovarian = test system: OVCAR-8 ovarian
PC-3 prostate = test system: PC-3 prostate
RPMI-8226 leukemia = test system: RPMI-8226 leukemia
RXF 393 renal = test system: RXF 393 renal
SF-268 CNS = test system: SF-268 CNS
SF-295 CNS = test system: SF-295 CNS
SF-539 CNS = test system: SF-539 CNS
SK-MEL-28 melanoma = test system: SK-MEL-28 melanoma
SK-MEL-5 melanoma = test system: SK-MEL-5 melanoma
SK-OV-3 ovarian = test system: SK-OV-3 ovarian
SN12C renal = test system: SN12C renal
SNB-19 CNS = test system: SNB-19 CNS
SNB-75 CNS = test system: SNB-75 CNS
SR leukemia = test system: SR leukemia
SW-620 colon = test system: SW-620 colon
TK-10 renal = test system: TK-10 renal
U251 glioblastoma = test system: U251 glioblastoma
UACC-62 melanoma = test system: UACC-62 melanoma
UO-31 renal = test system: UO-31 renal

In the case of `CN[C@H]1CN(c2ccc3c(=O)c(C(=O)O)cn(-c4nccs4)c3n2)C[C@@H]1OC`, the GI50 ([…]-0 renal) is reported as 0.434 µM, the TGI (786-0 renal) is reported as 4.59 µM and the GI50 (A498 renal) is reported as 0.781 µM. The TGI (A498 renal) was 3.83 µM, the GI50 (A549 NSCLC) was 0.686 µM and the TGI (A549 NSCLC) was greater than 100 µM. It also gave a GI50 (ACHN renal) of 0.458 µM, a TGI (ACHN renal) of 2.44 µM and a GI50 (BT-549 breast) of 0.585 µM. It also gave a TGI (BT-549 breast) of 6.87 µM, a GI50 (CAKI-1 renal) of 0.752 µM and a TGI (CAKI-1 renal) of 6.44 µM. It also gave a GI50 (CCRF-CEM leukemia) of 0.0586 µM, a TGI (CCRF-CEM leukemia) of 0.276 µM and a GI50 (COLO 205 colon) of 0.394 µM. The TGI (COLO 205 colon) was greater than 100 µM, the GI50 (DU-145 prostate) was 1.49 µM and the TGI (DU-145 prostate) was 7.07 µM. It also gave a GI50 (HCT-116 colon) of 0.371 µM, a TGI (HCT-116 colon) of 3.76 µM and a GI50 (HL-60(TB) leukemia) of 0.0776 µM. For the same compound, the TGI (HL-60(TB) leukemia) was 0.238 µM, the GI50 (HOP-62 NSCLC) was 0.479 µM and the TGI (HOP-62 NSCLC) was 2.2 µM. For the same compound, the GI50 (HOP-92 NSCLC) was 1.61 µM, the TGI (HOP-92 NSCLC) was 8.56 µM and the GI50 (HS 578T breast) was 0.64 µM. For the same compound, the TGI (HS 578T breast) was 5.24 µM, the GI50 (HT29 colon) was 1.28 µM and the TGI (HT29 colon) was 3.88 µM. It also gave a GI50 (IGROV1 ovarian) of 1.8 µM, a TGI (IGROV1 ovarian) greater than 100 µM and a GI50 (K-562 leukemia) of 0.616 µM. The TGI (K-562 leukemia) was 6.05 µM, the GI50 (KM12 colon) was 0.654 µM and the TGI (KM12 colon) was 10.7 µM. The GI50 (LOX IMVI melanoma) was 0.776 µM, the TGI (LOX IMVI melanoma) was 2.12 µM and the GI50 (M14 melanoma) was 0.674 µM. The TGI (M14 melanoma) was 3.02 µM, the GI50 (MALME-3M melanoma) was 1.06 µM and the TGI (MALME-3M melanoma) was 2.7 µM. For the same compound, the GI50 (MCF7 breast) was 0.602 µM, the TGI (MCF7 breast) was greater than 100 µM and the GI50 (MDA-MB-231 breast) was 1.41 µM. For the same compound, the TGI (MDA-MB-231 breast) was 11.4 µM, the GI50 (MDA-MB-435 melanoma) was 3.5 µM and the TGI (MDA-MB-435 melanoma) was greater than 100 µM. For the same compound, the GI50 (MDA-MB-468 breast) was 0.787 µM, the TGI (MDA-MB-468 breast) was 2.57 µM and the GI50 (MOLT-4 leukemia) was 0.0305 µM. The TGI (MOLT-4 leukemia) was 0.12 µM, the GI50 (NCI-H226 lung) was 1.23 µM and the TGI (NCI-H226 lung) was 3.6 µM. It also gave a GI50 (NCI-H23 lung) of 0.551 µM, a TGI (NCI-H23 lung) of 2.57 µM and a GI50 (NCI-H322M lung) of 3.52 µM. It also gave a TGI (NCI-H322M lung) of 39.7 µM, a GI50 (NCI-H460 NSCLC) of 0.206 µM and a TGI (NCI-H460 NSCLC) of 1.35 µM. The GI50 (NCI-H522 lung) was 1.21 µM, the TGI (NCI-H522 lung) was 5.61 µM and the GI50 (OVCAR-3 ovarian) was 1.32 µM. It also gave a TGI (OVCAR-3 ovarian) of 6.19 µM, a GI50 (OVCAR-4 ovarian) of 4.36 µM and a TGI (OVCAR-4 ovarian) greater than 100 µM. It also gave a GI50 (OVCAR-8 ovarian) of 0.637 µM, a TGI (OVCAR-8 ovarian) greater than 100 µM and a GI50 (PC-3 prostate) of 2.41 µM. The TGI (PC-3 prostate) was 15.4 µM, the GI50 (RPMI-8226 leukemia) was 0.0605 µM and the TGI (RPMI-8226 leukemia) was 1.18 µM. For the same compound, the GI50 (RXF 393 renal) was 0.86 µM, the TGI (RXF 393 renal) was 5.37 µM and the GI50 (SF-268 CNS) was 0.421 µM. The TGI (SF-268 CNS) was 6.03 µM, the GI50 (SF-295 CNS) was 0.426 µM and the TGI (SF-295 CNS) was 2.63 µM. The GI50 (SF-539 CNS) was 0.85 µM, the TGI (SF-539 CNS) was greater than 100 µM and the GI50 (SK-MEL-28 melanoma) was 1.13 µM. The TGI (SK-MEL-28 melanoma) was 2.93 µM, the GI50 (SK-MEL-5 melanoma) was 1.15 µM and the TGI (SK-MEL-5 melanoma) was 2.54 µM. For the same compound, the GI50 (SK-OV-3 ovarian) was 1.8 µM, the TGI (SK-OV-3 ovarian) was 26.3 µM and the GI50 (SN12C renal) was 0.403 µM. For the same compound, the TGI (SN12C renal) was 2.77 µM, the GI50 (SNB-19 CNS) was 0.559 µM and the TGI (SNB-19 CNS) was 2.93 µM. The GI50 (SNB-75 CNS) was 0.855 µM, the TGI (SNB-75 CNS) was 2.47 µM and the GI50 (SR leukemia) was 0.0189 µM. The TGI (SR leukemia) was 0.0443 µM, the GI50 (SW-620 colon) was 0.823 µM and the TGI (SW-620 colon) was 7.71 µM. For the same compound, the GI50 (TK-10 renal) was 1.79 µM, the TGI (TK-10 renal) was 12.1 µM and the GI50 (U251 glioblastoma) was 0.675 µM. It also gave a TGI (U251 glioblastoma) of 2.56 µM, a GI50 (UACC-62 melanoma) of 0.427 µM and a TGI (UACC-62 melanoma) of 1.89 µM. The GI50 (UO-31 renal) was 1.47 µM and the TGI (UO-31 renal) was 8.66 µM.
